Assay results as given in the supplement of paper PMC10307832.

What was measured:
Assay in all cases: relative viability (nuclei count vs DMSO), 5 days (fraction); higher = more cells survive
[1] = compound: CCC1=CN=CN=C1N2CCN(CC2)CC3=NC4=C(N3)C=C(C=C4)C(F)(F)F + COc1cc2c(Oc3ccc(NC(=O)C4(C(=O)Nc5ccc(F)cc5)CC4)cc3F)ccnc2cc1OCCCN1CCOCC1 [Foretinib] (partner 0.25 µM)
Procedure, shortened: (§1)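 Values are medians from duplicate plates. Each reflects relative viability, defined as the nuclei count of treated wells over that of vehicle wells. Lung cancer cell lines in 1536-well plates were pin-tool dosed one day after seeding with one drug alone or with a fixed anchor-drug dose plus five library-drug doses (not always all listed) in √10 steps, then fixed, stained and imaged at 4× after 5 days.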

Mirin + Trametinib = compound: N=C1NC(=O)/C(=C/c2ccc(O)cc2)S1 [Mirin] + CC(=O)Nc1cccc(-n2c(=O)n(C3CC3)c(=O)c3c(Nc4ccc(I)cc4F)n(C)c(=O)c(C)c32)c1 [Trametinib] (partner 0.02 µM)
Procedure, shortened: as §1

[2] = compound: CCn1c(-c2nonc2N)nc2cnc(Oc3cccc(NC(=O)c4ccc(OCCN5CCOCC5)cc4)c3)cc21 + CC1(C)CCC(c2ccc(Cl)cc2)=C(CN2CCN(c3ccc(C(=O)NS(=O)(=O)c4ccc(N[C@H](CCN5CCOCC5)CSc5ccccc5)c(S(=O)(=O)C(F)(F)F)c4)cc3)CC2)C1 [Navitoclax] (partner 0.5 µM)
Procedure, shortened: as §1

[3] = compound: CCn1c(-c2nonc2N)nc2cnc(Oc3cccc(NC(=O)c4ccc(OCCN5CCOCC5)cc4)c3)cc21 + Cc1nc(NC(=O)N2CCC[C@H]2C(N)=O)sc1-c1ccnc(C(C)(C)C(F)(F)F)c1 [Alpelisib] (partner 2 µM)
Procedure, shortened: as §1

With NCI-H2405 the relative viability ([1]; first compound 0.04 µM) was 1.06, the relative viability ([1]; first compound 0.1265 µM) was 1.02 and the relative viability ([1]; first compound 0.4 µM) was 1.06. It also gave a relative viability ([1]; first compound 4 µM) of 1.12, a relative viability (Mirin + Trametinib; first compound 0.25 µM) of 0.615 and a relative viability (Mirin + Trametinib; first compound 2.5 µM) of 0.6. For the same cell line, the relative viability (Mirin + Trametinib; first compound 7.906 µM) was 0.594, the relative viability (Mirin + Trametinib; first compound 25 µM) was 0.645 and the relative viability ([2]; first compound 0.04 µM) was 1.16. For the same cell line, the relative viability ([2]; first compound 0.1265 µM) was 0.361, the relative viability ([2]; first compound 0.4 µM) was 0.367 and the relative viability ([2]; first compound 1.265 µM) was 0.183. The relative viability ([2]; first compound 4 µM) was 0.144, the relative viability ([3]; first compound 0.04 µM) was 0.893 and the relative viability ([3]; first compound 0.1265 µM) was 0.425. The relative viability ([3]; first compound 0.4 µM) was 0.368, the relative viability ([3]; first compound 1.265 µM) was 0.326 and the relative viability ([3]; first compound 4 µM) was 0.274.

NCI-H3122 was tested, and the relative viability ([1]; first compound 0.04 µM) was 0.924, the relative viability ([1]; first compound 0.1265 µM) was 0.968 and the relative viability ([1]; first compound 0.4 µM) was 0.94. It also gave a relative viability ([1]; first compound 1.265 µM) of 0.978, a relative viability ([1]; first compound 4 µM) of 0.977 and a relative viability (Mirin + Trametinib; first compound 0.25 µM) of 0.221. For the same cell line, the relative viability (Mirin + Trametinib; first compound 0.7906 µM) was 0.218, the relative viability (Mirin + Trametinib; first compound 2.5 µM) was 0.25 and the relative viability (Mirin + Trametinib; first compound 7.906 µM) was 0.176. It also gave a relative viability (Mirin + Trametinib; first compound 25 µM) of 0.221, a relative viability ([2]; first compound 0.04 µM) of 1.02 and a relative viability ([2]; first compound 0.1265 µM) of 1.03. The relative viability ([2]; first compound 0.4 µM) was 1.05, the relative viability ([2]; first compound 1.265 µM) was 0.974 and the relative viability ([2]; first compound 4 µM) was 0.979. For the same cell line, the relative viability ([3]; first compound 0.04 µM) was 0.831, the relative viability ([3]; first compound 0.1265 µM) was 0.885 and the relative viability ([3]; first compound 0.4 µM) was 0.782. The relative viability ([3]; first compound 1.265 µM) was 0.729 and the relative viability ([3]; first compound 4 µM) was 0.82.

PC-3 [JPC-3] gave a relative viability ([1]; first compound 0.04 µM) of 1.08, a relative viability ([1]; first compound 0.1265 µM) of 0.9 and a relative viability ([1]; first compound 0.4 µM) of 0.997. The relative viability ([1]; first compound 1.265 µM) was 0.964, the relative viability ([1]; first compound 4 µM) was 0.971 and the relative viability (Mirin + Trametinib; first compound 0.25 µM) was 0.669. It also gave a relative viability (Mirin + Trametinib; first compound 0.7906 µM) of 0.72, a relative viability (Mirin + Trametinib; first compound 2.5 µM) of 0.7 and a relative viability (Mirin + Trametinib; first compound 7.906 µM) of 0.73. For the same cell line, the relative viability (Mirin + Trametinib; first compound 25 µM) was 0.786, the relative viability ([2]; first compound 0.04 µM) was 0.846 and the relative viability ([2]; first compound 0.1265 µM) was 0.814. The relative viability ([2]; first compound 0.4 µM) was 0.801, the relative viability ([2]; first compound 1.265 µM) was 0.866 and the relative viability ([2]; first compound 4 µM) was 0.779. The relative viability ([3]; first compound 0.04 µM) was 1.1, the relative viability ([3]; first compound 0.1265 µM) was 1.02 and the relative viability ([3]; first compound 0.4 µM) was 1.01. For the same cell line, the relative viability ([3]; first compound 1.265 µM) was 1.07 and the relative viability ([3]; first compound 4 µM) was 1.05.

For PC-14, the relative viability ([1]; first compound 0.04 µM) was 1.01, the relative viability ([1]; first compound 0.1265 µM) was 0.825 and the relative viability ([1]; first compound 0.4 µM) was 0.947. The relative viability ([1]; first compound 1.265 µM) was 0.963, the relative viability ([1]; first compound 4 µM) was 0.997 and the relative viability (Mirin + Trametinib; first compound 0.25 µM) was 0.788. It also gave a relative viability (Mirin + Trametinib; first compound 0.7906 µM) of 0.893, a relative viability (Mirin + Trametinib; first compound 2.5 µM) of 0.725 and a relative viability (Mirin + Trametinib; first compound 7.906 µM) of 0.725. The relative viability (Mirin + Trametinib; first compound 25 µM) was 0.776, the relative viability ([2]; first compound 0.04 µM) was 1.1 and the relative viability ([2]; first compound 0.1265 µM) was 1.01. The relative viability ([2]; first compound 0.4 µM) was 0.924, the relative viability ([2]; first compound 1.265 µM) was 0.934 and the relative viability ([2]; first compound 4 µM) was 0.748. The relative viability ([3]; first compound 0.04 µM) was 1.06, the relative viability ([3]; first compound 0.1265 µM) was 0.935 and the relative viability ([3]; first compound 0.4 µM) was 0.871. It also gave a relative viability ([3]; first compound 1.265 µM) of 0.77 and a relative viability ([3]; first compound 4 µM) of 0.805.

Cell Line RERF-LC-KJ has a relative viability ([1]; first compound 0.04 µM) of 0.763, a relative viability ([1]; first compound 0.1265 µM) of 0.755 and a relative viability ([1]; first compound 0.4 µM) of 0.82. It also gave a relative viability ([1]; first compound 1.265 µM) of 0.851, a relative viability ([1]; first compound 4 µM) of 0.82 and a relative viability (Mirin + Trametinib; first compound 0.25 µM) of 0.897. It also gave a relative viability (Mirin + Trametinib; first compound 0.7906 µM) of 0.975, a relative viability (Mirin + Trametinib; first compound 2.5 µM) of 0.782 and a relative viability (Mirin + Trametinib; first compound 7.906 µM) of 0.842. It also gave a relative viability (Mirin + Trametinib; first compound 25 µM) of 0.816, a relative viability ([2]; first compound 0.04 µM) of 0.867 and a relative viability ([2]; first compound 0.1265 µM) of 0.828. For the same cell line, the relative viability ([2]; first compound 0.4 µM) was 0.946, the relative viability ([2]; first compound 1.265 µM) was 0.603 and the relative viability ([2]; first compound 4 µM) was 0.481. For the same cell line, the relative viability ([3]; first compound 0.04 µM) was 0.846, the relative viability ([3]; first compound 0.1265 µM) was 0.809 and the relative viability ([3]; first compound 0.4 µM) was 0.733. For the same cell line, the relative viability ([3]; first compound 1.265 µM) was 0.662 and the relative viability ([3]; first compound 4 µM) was 0.507.

SK-LU-1 showed a relative viability ([1]; first compound 0.04 µM) of 0.876, a relative viability ([1]; first compound 0.1265 µM) of 0.785 and a relative viability ([1]; first compound 0.4 µM) of 0.76. For the same cell line, the relative viability ([1]; first compound 1.265 µM) was 0.813, the relative viability ([1]; first compound 4 µM) was 0.77 and the relative viability (Mirin + Trametinib; first compound 0.25 µM) was 0.519. For the same cell line, the relative viability (Mirin + Trametinib; first compound 0.7906 µM) was 0.519, the relative viability (Mirin + Trametinib; first compound 2.5 µM) was 0.568 and the relative viability (Mirin + Trametinib; first compound 7.906 µM) was 0.383. It also gave a relative viability (Mirin + Trametinib; first compound 25 µM) of 0.538, a relative viability ([2]; first compound 0.04 µM) of 1.07 and a relative viability ([2]; first compound 0.1265 µM) of 0.619. It also gave a relative viability ([2]; first compound 0.4 µM) of 0.383, a relative viability ([2]; first compound 1.265 µM) of 0.296 and a relative viability ([2]; first compound 4 µM) of 0.229. For the same cell line, the relative viability ([3]; first compound 0.04 µM) was 1.17, the relative viability ([3]; first compound 0.1265 µM) was 0.821 and the relative viability ([3]; first compound 0.4 µM) was 0.599. It also gave a relative viability ([3]; first compound 1.265 µM) of 0.42 and a relative viability ([3]; first compound 4 µM) of 0.349.

For SK-MES-1, the relative viability ([1]; first compound 0.04 µM) was 0.917, the relative viability ([1]; first compound 0.1265 µM) was 0.925 and the relative viability ([1]; first compound 0.4 µM) was 0.909. For the same cell line, the relative viability ([1]; first compound 1.265 µM) was 0.829, the relative viability ([1]; first compound 4 µM) was 0.882 and the relative viability (Mirin + Trametinib; first compound 0.25 µM) was 0.505. It also gave a relative viability (Mirin + Trametinib; first compound 0.7906 µM) of 0.569, a relative viability (Mirin + Trametinib; first compound 2.5 µM) of 0.571 and a relative viability (Mirin + Trametinib; first compound 7.906 µM) of 0.585. It also gave a relative viability (Mirin + Trametinib; first compound 25 µM) of 0.716, a relative viability ([2]; first compound 0.04 µM) of 1.32 and a relative viability ([2]; first compound 0.1265 µM) of 1.35. The relative viability ([2]; first compound 0.4 µM) was 1.1, the relative viability ([2]; first compound 4 µM) was 1.05 and the relative viability ([3]; first compound 0.04 µM) was 0.924. For the same cell line, the relative viability ([3]; first compound 0.1265 µM) was 0.735, the relative viability ([3]; first compound 0.4 µM) was 0.656 and the relative viability ([3]; first compound 4 µM) was 0.684.

Cell Line SW 1573 has a relative viability ([1]; first compound 0.04 µM) of 0.732, a relative viability ([1]; first compound 0.1265 µM) of 0.863 and a relative viability ([1]; first compound 0.4 µM) of 0.912. The relative viability ([1]; first compound 1.265 µM) was 0.815, the relative viability ([1]; first compound 4 µM) was 0.8 and the relative viability (Mirin + Trametinib; first compound 0.25 µM) was 0.647. For the same cell line, the relative viability (Mirin + Trametinib; first compound 0.7906 µM) was 0.557, the relative viability (Mirin + Trametinib; first compound 2.5 µM) was 0.567 and the relative viability (Mirin + Trametinib; first compound 7.906 µM) was 0.51. It also gave a relative viability (Mirin + Trametinib; first compound 25 µM) of 0.369, a relative viability ([2]; first compound 0.04 µM) of 0.911 and a relative viability ([2]; first compound 0.1265 µM) of 1.19. It also gave a relative viability ([2]; first compound 0.4 µM) of 0.807, a relative viability ([2]; first compound 1.265 µM) of 0.562 and a relative viability ([2]; first compound 4 µM) of 0.223. It also gave a relative viability ([3]; first compound 0.04 µM) of 0.968, a relative viability ([3]; first compound 0.1265 µM) of 0.823 and a relative viability ([3]; first compound 0.4 µM) of 0.48. For the same cell line, the relative viability ([3]; first compound 1.265 µM) was 0.397 and the relative viability ([3]; first compound 4 µM) was 0.276.
